Literature values as cited in patent US6532437B1, “Crystalline frap complex” (Cornell Research Foundation, Inc., priority 1996, dated 2003).

Assays:
[1] = system: Chronic GVHD in BDF1 mice; details: BDF1 mice given DBA/2 spleen:lymph node cells
[2] = system: spontaneous SLE in MRL/lpr-mice

| Compound | activity in CGVHD model [1] | effect on course of disease [2] |
| --- | --- | --- |
| O=P1(N(CCCl)CCCl)NCCCO1 (centres unmarked) [cyclophosphamide] | active | can prevent and reverse the course of disease |
| Cc1oncc1C(=O)Nc1ccc(C(F)(F)F)cc1 [leflunomide] | active | can prevent and reverse the course of disease |
| C[C@]12C=CC(=O)C=C1CC[C@@H]1[C@@H]2[C@@H](O)C[C@@]2(C)[C@H]1CC[C@]2(O)C(=O)CO [prednisolone] | active |  |
